Key:
[1] = system: SKOV3 cells (human ovarian cancer cell); format: in vivo; settings: docetaxel 4 mg/kg Q3d*4; RAP-E 50 mg/kg Q3d*4
Text: Akt and mTOR phosphorylation are frequently detected in ovarian cancer, and SKOV3, an ovarian cancer cell line, is resistant to cis-platinum and doxorubicin.

[2] = BCS Class II drug; cited from earlier work
[3] = tablet form; cited from earlier work
[4] = system: CT26 cells (murine colorectal carcinoma cell); assay: CT26 mouse colon cancer model; format: in vivo; settings: 5-FU 25 mg/kg Q3d*4, RAP-E 25 mg/kg Q3d*4
Description: CT26 model on Balb/c mice was used as another animal model, classified as three groups: a control group (no drug), a comparative group (administration of 5-FU, dose: 25 mg/kg, Q3d*4) and the inventive group (administration of RAP-E formulation, dose: 25 mg/kg, Q3d*4). 6 week old Balb/c mice (BioLasco, Ilan, Taiwan) were inoculated subcutaneously with 1*10^5 CT26 cells (murine colorectal carcinoma cell). Following tumor inoculation, measuring the tumor size twice a week, and starting treatment when the tumor grows to 80-100 mm^3.

CC(=O)O[C@@]12CO[C@@H]1C[C@H](O)[C@@]1(C)C(=O)[C@H](O)C3=C(C)[C@@H](OC(=O)[C@H](O)[C@@H](NC(=O)OC(C)(C)C)c4ccccc4)C[C@@](O)([C@@H](OC(=O)c4ccccc4)[C@H]21)C3(C)C [docetaxel]
Mean inhibition rate (tumor volume) [1]: 53%

CO[C@H]1C[C@@H]2CC[C@@H](C)[C@@](O)(O2)C(=O)C(=O)N2CCCC[C@H]2C(=O)O[C@H]([C@H](C)C[C@@H]2CC[C@@H](O)[C@H](OC)C2)CC(=O)[C@H](C)/C=C(\C)[C@@H](O)[C@@H](OC)C(=O)[C@H](C)C[C@H](C)/C=C/C=C/C=C/1C [Rapamycin]
permeability [2]: high permeability

CO[C@H]1C[C@@H]2CC[C@@H](C)[C@@](O)(O2)C(=O)C(=O)N2CCCC[C@H]2C(=O)O[C@H]([C@H](C)C[C@@H]2CC[C@@H](OCCO)[C@H](OC)C2)CC(=O)[C@H](C)/C=C(\C)[C@@H](O)[C@@H](OC)C(=O)[C@H](C)C[C@H](C)/C=C/C=C/C=C/1C [everolimus]
bioavailability [3]: ~20%

O=c1[nH]cc(F)c(=O)[nH]1 [5-FU]
Mean inhibition rate (tumor volume) [4]: 11%
toxicity (body weight change) [4]: significant weight loss
Day 16 tumor inhibition rate ([4]; day 16): 26%

Reference: patent US12433874B2 (PRESCIENCE BIOTECHNOLOGY INC., priority 2022, dated 2025)
